# In patent US20140135310A1, “SULPHONAMIDE DERIVATIVES OF ALICYCLIC AMINES FOR THE TREATMENT OF CENTRAL NERVOUS SYSTEM DISEASES” (Adamed Sp. z o.o., priority 2011, published 2014):
# Experiments:
# [1] = molecular target: T1, 5-HT1A receptor (rat hippocampus) (Rattus norvegicus, UniProt P19327); assay: Radioligand binding assay, serotoninergic 5-HT1A receptors; details: binding assay result in %, Table 5a;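 also: test compound at 1 µM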
# T1 construct: hippocampus; from tissue; host or cells: rat hippocampus
# T1 sequence (P19327 1-422): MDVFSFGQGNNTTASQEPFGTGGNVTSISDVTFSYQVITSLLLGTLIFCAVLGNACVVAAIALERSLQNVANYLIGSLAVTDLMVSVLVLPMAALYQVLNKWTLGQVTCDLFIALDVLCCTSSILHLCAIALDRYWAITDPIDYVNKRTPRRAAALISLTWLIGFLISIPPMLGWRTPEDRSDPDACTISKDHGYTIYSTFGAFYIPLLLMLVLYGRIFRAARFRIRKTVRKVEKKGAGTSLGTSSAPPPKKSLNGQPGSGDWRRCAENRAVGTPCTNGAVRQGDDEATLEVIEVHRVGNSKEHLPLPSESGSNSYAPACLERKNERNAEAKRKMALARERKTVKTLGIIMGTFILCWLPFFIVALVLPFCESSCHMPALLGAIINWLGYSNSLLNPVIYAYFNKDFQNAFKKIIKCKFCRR
# 5-HT2C receptor = molecular target: T2, 5-HT2C receptor (Homo sapiens, UniProt P28335); assay: Radioligand binding assay, serotoninergic 5-HT2C receptors; details: test compound 1×10^−6 M
# T2 construct: expressed in transfected cells; host or cells: HEK-293 cells
# T2 sequence (P28335 33-458): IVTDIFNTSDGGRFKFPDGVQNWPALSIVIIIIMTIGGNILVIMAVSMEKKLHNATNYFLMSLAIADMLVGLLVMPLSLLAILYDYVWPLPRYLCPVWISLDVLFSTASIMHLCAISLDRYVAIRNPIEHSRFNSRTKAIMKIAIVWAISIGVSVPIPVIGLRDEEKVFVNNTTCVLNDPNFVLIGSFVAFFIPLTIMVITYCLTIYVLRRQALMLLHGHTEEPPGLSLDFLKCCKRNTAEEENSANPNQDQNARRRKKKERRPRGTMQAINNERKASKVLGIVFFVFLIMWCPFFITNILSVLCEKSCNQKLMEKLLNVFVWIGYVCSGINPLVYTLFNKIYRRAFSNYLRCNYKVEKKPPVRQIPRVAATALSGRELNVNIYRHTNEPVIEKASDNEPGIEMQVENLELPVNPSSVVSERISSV
# Excerpt: (§1) The specific ligand binding to the receptors is defined as the difference between the total binding and the non-specific binding determined in the presence of the excess of unlabelled ligand.
# (§2) The results are expressed as a percent of control specific binding ((measured specific binding/control specific binding)×100) and as a percent inhibition of control specific binding (100−((measured specific binding/control specific binding)×100)) obtained in the presence of the test compounds. The specific ligand binding to the receptors is defined as the difference between the total binding and the nonspecific binding determined in the presence of an excess of unlabelled ligand. Scintillation counting was the method of detection of ligand binding. The IC50 values (concentration causing a half-maximal inhibition of control specific binding) were determined by non-linear regression analysis of the competition curves generated with mean replicate values using Hill equation curve fitting (Y=D+[(A−D)/(1+(C/C50)nH)], where Y=specific binding, D=minimum specific binding, A=maximum specific binding, C=compound concentration, C50=IC50, and nH=slope factor). This analysis was performed using a software developed at Cerep (Hill software) and validated by comparison with data generated by the commercial software SigmaPlot® 4.0 for Windows® (© 1997 by SPSS Inc.). The inhibition constants (Ki) were calculated using the Cheng Prusoff equation (Ki=IC50/(1+(L/KD)), where L=concentration of radioligand in the assay, and KD=affinity of the radioligand for the receptor). A scatchard plot was used to determine the Kd.
# Experimental conditions for tests are given in Table 4, and results of tests for representative compounds of the invention are given in Table 5a and 5b (receptors 5-HT1A, 5-HT2A, 5-HT6 and 5-HT7) and in Table 6 (receptors 5-HT2C).
# 5-HT7 receptor = molecular target: T3, 5-HT7 receptor (Homo sapiens, UniProt P34969); assay: Radioligand binding assay, serotoninergic 5-HT7 receptors; details: binding assay result in %, Table 5a;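 also: test compound at 1 µM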
# T3 construct: purchased PerkinElmer
# T3 sequence (P34969 whole entry): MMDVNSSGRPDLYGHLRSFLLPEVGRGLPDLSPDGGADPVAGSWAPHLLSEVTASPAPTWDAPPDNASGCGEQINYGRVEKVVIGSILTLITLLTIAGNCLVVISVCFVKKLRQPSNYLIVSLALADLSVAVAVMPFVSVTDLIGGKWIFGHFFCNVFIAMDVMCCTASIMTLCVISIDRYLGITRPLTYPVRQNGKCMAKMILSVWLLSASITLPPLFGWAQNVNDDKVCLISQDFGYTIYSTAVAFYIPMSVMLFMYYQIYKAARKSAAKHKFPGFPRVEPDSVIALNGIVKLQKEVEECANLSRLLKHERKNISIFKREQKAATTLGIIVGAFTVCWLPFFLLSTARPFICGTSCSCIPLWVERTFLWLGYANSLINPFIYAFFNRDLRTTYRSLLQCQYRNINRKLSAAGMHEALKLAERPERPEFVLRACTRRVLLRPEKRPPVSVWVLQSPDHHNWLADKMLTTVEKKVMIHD
# Outline: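 Ki values used the Cheng–Prusoff equation, with KD from Scatchard analysis, applied to IC50 from Hill fits of human 5-HT7 radioligand competition curves. Bound radioligand was counted by scintillation, and excess unlabelled ligand set the non-specific binding.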
# α2C adrenergic receptors = molecular target: T4, α2C adrenergic receptors (Homo sapiens, UniProt P18825); assay: Radioligand binding assay, adrenergic α2C receptors; details: test compound 1×10^−6 M
# T4 construct: expressed in transfected cells; host or cells: CHO cells
# T4 sequence (P18825 1-462): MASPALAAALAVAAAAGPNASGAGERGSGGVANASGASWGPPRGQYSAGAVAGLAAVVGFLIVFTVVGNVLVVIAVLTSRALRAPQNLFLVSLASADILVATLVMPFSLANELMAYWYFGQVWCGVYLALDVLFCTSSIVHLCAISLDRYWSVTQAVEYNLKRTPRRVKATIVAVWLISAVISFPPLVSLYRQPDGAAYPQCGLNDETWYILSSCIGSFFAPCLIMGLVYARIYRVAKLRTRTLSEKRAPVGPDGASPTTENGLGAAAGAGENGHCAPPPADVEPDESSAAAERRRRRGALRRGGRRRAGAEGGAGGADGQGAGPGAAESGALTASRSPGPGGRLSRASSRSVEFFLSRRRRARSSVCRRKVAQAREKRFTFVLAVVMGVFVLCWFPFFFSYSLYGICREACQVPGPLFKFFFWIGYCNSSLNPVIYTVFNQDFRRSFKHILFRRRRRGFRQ
# Excerpt: as §1, §2
# Experimental conditions for tests are given in Table 7, and results of tests for representative compounds are given in Tables 8 (α1 receptors) and in Tables 9 (α2C receptors).
# σ receptors = assay: Radioligand binding assay, σ receptors; details: rat cerebral cortex, [3H]DTG 8 nM
# Excerpt: as §1
# as §2, with “This analysis was performed using a software developed at Cerep (Hill software) and validated by comparison with data generated by the commercial software SigmaPlot® 4.0 for Windows® (© 1997 by SPSS Inc.).” left out
Compound,inhibition at 1 µM [1] [%],inhibition at 1 µM (5-HT2C receptor) [%],inhibition at 1 µM (5-HT7 receptor) [%],inhibition at 1 µM (α2C adrenergic receptors) [%],σ [%] (σ receptors),5-HT1A [%] [1] [%],5-HT7 [%] (5-HT7 receptor),α2C [%] (α2C adrenergic receptors),5-HT2C [%] (5-HT2C receptor)
"Cc1cccc(S(=O)(=O)NC2CN(CCOc3cccc4[nH]ccc34)C2)c1 [Compound 48, N-[1-[2-(1H-Indol-4-yloxy)ethyl]azetidin-3-yl]-3-methyl-benzenesulphonamide]",100,32,98,105,18,,,,
"COc1ccc2cc(S(=O)(=O)N[C@@H]3CCN(CCCc4noc5cc(F)ccc45)C3)ccc2c1 [Compound 230, N-[(3R)-1-[3-(6-Fluoro-1,2-benzoxazol-3-yl)propyl]pyrrolidin-3-yl]-6-methoxy-naphthalene-2-sulphonamide]",77,91,87,92,90,,,,
"CC1(C)Cc2cccc(OCCN3CCC(NS(=O)(=O)c4cccc(O)c4)CC3)c2O1 [Compound 109, N-[1-[2-[(2,2-Dimethyl-3H-benzofuran-7-yl)oxy]ethyl]-4-piperidine]-3-hydroxy-benzenesulphonamide]",,,,,39,96,99,98,
"O=S(=O)(NC1CCN(CCCc2c[nH]c3ccc(Cl)cc23)C1)c1cccc(F)c1 (stereo not shown) [Compound 82, N-[1-[3-(5-Chloro-1H-indol-3-yl)propyl]pyrrolidin-3-yl]-3-fluoro-benzene-sulphonamide]",99,82,96,101,63,,,,
"O=S(=O)(NC1CN(CCOc2cccc3[nH]ccc23)C1)c1cccc2ccccc12 [Compound 49, N-[1-[2-(1H-Indol-4-yloxy)ethyl]azetidin-3-yl]naphthalene-1-sulphonamide]",100,59,100,110,50,,,,
"N-[[1-[2-[(2,2-Dimethyl-3H-benzofuran-7-yl)oxy]ethyl]azetidin-3-yl]methyl]-3-hydroxy-benzenesulphonamide [Compound 111]",,,,,81,99,100,90,87
"O=S(=O)(NC1CCN(CCCc2noc3cc(F)ccc23)C1)c1ccc2ccccc2c1 (stereo not shown) [Compound 21, N-[1-[3-(6-Fluoro-1,2-benzoxazol-3-yl)propyl]pyrrolidin-3-yl]naphthalene-2-sulphonamide]",66,71,100,78,60,,,,
"Cc1ccc2sc(S(=O)(=O)NC3CCN(CCCc4noc5cc(F)ccc45)C3)cc2c1 (stereo not shown) [Compound 226, N-[1-[3-(6-Fluoro-1,2-benzoxazol-3-yl)propyl]pyrrolidin-3-yl]-5-methylbenzothiophene-2-sulphonamide]",43,89,91,86,82,,,,
"O=S(=O)(NC1CCN(CCCc2c[nH]c3ccc(F)cc23)C1)c1cccc2ccccc12 (stereo not shown) [Compound 79, N-[1-[3-(5-Fluoro-1H-indol-3-yl)propyl]pyrrolidin-3-yl]naphthalene-1-sulphonamide]",99,,96,96,67,,,,
"O=S(=O)(NC1CCN(CCOc2cccc3ccccc23)C1)c1cccc(O)c1 (stereo not shown) [Compound 115, 3-Hydroksy-N-[1-[2-(1-naphthyloxy)ethyl]pyrrolidin-3-yl]benzenesulphonamide]",,,,,69,100,98,90,
"O=S(=O)(N[C@@H]1CCN(CCCc2noc3cc(F)ccc23)C1)c1ccc2ccccc2c1 [Compound 206, N-[(3R)-1-[3-(6-Fluoro-1,2-benzoxazol-3-yl)propyl]pyrrolidin-3-yl]naphthalene-2-sulphonamide]",68,84,100,93,,,,,
"O=S(=O)(N[C@H]1CCN(CCCc2noc3cc(F)ccc23)C1)c1cc2ccccc2s1 [Compound 197, N-[(3S)-1-[3-(6-Fluoro-1,2-benzoxazol-3-yl)propyl]pyrrolidin-3-yl]benzo-thiophene-2-sulphonamide]",56,84,101,90,,,,,
"COc1cccc(S(=O)(=O)NCC2CN(CCCc3noc4cc(F)ccc34)C2)c1 [Compound 143, N-[[1-[3-(6-Fluoro-1,2-benzoxazol-3-yl)propyl]azetidin-3-yl]methyl]-3-methoxy-benzenesulphonamide]",44,68,87,78,,,,,
"O=S(=O)(NCC1CCN(CCOc2cccc3c2OCCO3)C1)c1ccc(Br)cc1 (stereo not shown) [Compound 305, 4-Bromo-N-[[1-[2-(2,3-dihydro-1,4-benzodioxin-5-yloxy)ethyl]pyrrolidin-3-yl]methyl]benzenesulphonamide]",101,59,96,96,,,,,
"Cc1c(S(=O)(=O)NCC2CCN(CCCc3noc4cc(F)ccc34)C2)sc2ccc(Cl)cc12 (stereo not shown) [Compound 238, 5-Chloro-N-[[1-[3-(6-fluoro-1,2-benzoxazol-3-yl)propyl]pyrrolidin-3-yl]methyl]-3-methyl-benzothiophene-2-sulphonamide]",71,,94,94,95,,,,
